Data taken from patent publication US20240002416A1 (Rheinische-Friedrich-Wilhelms-Universität Bonn, priority 2020, published 2024).

Tests used:
Assay type in all cases: cell-based
MRGPRX4-83S [1] = molecular target: T1, MRGPRX4-83S (Homo sapiens, UniProt Q96LA9, L83S); assay: Calcium assay (human glioblastoma LN229 cells expressing the MRGPRX4-83S); parameters: LN229 glioblastoma cells natively expressing the MRGPRX4-83S; endogenous in cells; host or cells: LN229 human glioblastoma cells; details: for Emax: LN-229, efficacy based on 30 μM H-1 (set as 100%), read-out: Emax; for EC50: calcium mobilization, LN229 cells, MRGPRX4-83S, read-out: EC50 ± SEM
Procedure: (§1) For β-arrestin recruitment assays, recombinant Chinese hamster ovary (CHO) cells expressing the human MRGPRX4 were used (DiscoverX/Eurofins) which allowed to measure β-galactosidase complementation upon β-arrestin recruitment. For calcium mobilization assays, recombinant astrocytes expressing MRGPX4-83L, or LN229 glioblastoma cells natively expressing the MRGPRX4-83S, were used.
(§2) The assays were performed as previously described for other rhodopsin-like GPCRs (Müller, C.E.; 8-Benzamidochromen-4-one-2-carboxylic acids: potent and selective agonists for the orphan G protein-coupled receptor GPR35. J. Med. Chem. 2013, 56:5182-97; Müller, C.E. Molecular Recognition of Agonists and Antagonists by the Nucleotide-Activated G Protein-Coupled P2Y2 Receptor. J. Med. Chem. 2017, 60:8425-8440).

human MRGPRX4-83L [2] = molecular target: T2, human MRGPRX4-83L (Homo sapiens, UniProt Q96LA9); assay: β-arrestin assay (CHO β-arrestin ARMS1-ProLink 2 human MRGPRX4 83L); details: Table 1; for Emax: efficacy based on maximal effect of 100 nM B-16 (set as 100%), read-out: Emax; for EC50: β-arrestin recruitment, CHO cells, MRGPRX4-83L, means of 3-4 experiments, read-out: EC50 ± SEM; for IC50: inhibition of the effect of 2.6 μM B-16
T2 construct: host or cells: CHO β-arrestin cells
Procedure: as §1, §2

human MRGPRX4-83L [3] = molecular target: T2, human MRGPRX4-83L; assay: Calcium assay (human MRGPRX4 83L), recombinant astrocytes; details: for EC50 / Emax: Table 1; for EC50: calcium mobilization, MRGPRX4-83L, read-out: EC50 ± SEM; for Emax: efficacy based on maximal effect of 1 μM B-16 (set as 100%), read-out: Emax
Procedure: as §1, §2

MRGPRX4-83S [4] = molecular target: T1, MRGPRX4-83S; assay: β-arrestin assay (CHO β-arrestin human MRGPRX4-83S); parameters: host or cells: CHO β-arrestin cells; details: for Emax: efficacy based on 100 nM B-16 (set as 100%), read-out: Emax; for EC50: β-arrestin recruitment, CHO cells, MRGPRX4-83S, read-out: EC50 ± SEM
Procedure: as §1, §2

T2 sequence (Q96LA9 whole entry): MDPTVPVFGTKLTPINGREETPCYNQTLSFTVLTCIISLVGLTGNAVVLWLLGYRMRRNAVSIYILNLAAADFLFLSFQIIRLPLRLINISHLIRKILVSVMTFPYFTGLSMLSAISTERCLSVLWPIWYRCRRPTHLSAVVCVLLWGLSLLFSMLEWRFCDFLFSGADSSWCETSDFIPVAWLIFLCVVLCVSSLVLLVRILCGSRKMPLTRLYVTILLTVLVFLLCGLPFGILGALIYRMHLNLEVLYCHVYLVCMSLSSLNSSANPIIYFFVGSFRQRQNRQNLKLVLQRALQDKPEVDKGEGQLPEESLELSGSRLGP
T1 sequence (Q96LA9 whole entry L83S): as the sequence (Q96LA9 whole entry) above, with L83S counted along it

`C#CCn1c(=O)c2c(nc(CCc3ccccc3Br)n2C)n(CCCCP(=O)(O)O)c1=O` [B-18, (4-(8-(2-Bromophenethyl)-7-methyl-2,6-dioxo-1-(prop-2-yn-1-yl)-1,2,6,7-tetrahydro-3H-purin-3-yl)butyl)phosphonic acid] gave an Emax (MRGPRX4-83S [1]; Table 2) of 108%, an EC50 (MRGPRX4-83S [1]; Table 2) of 0.501 ± 0.076 nM and an Emax (human MRGPRX4-83L [2]) of 132%. The EC50 (human MRGPRX4-83L [2]) was 93.5 ± 5.4 nM, the EC50 (human MRGPRX4-83L [3]) was 6.35 ± 1.67 nM and the Emax (human MRGPRX4-83L [3]) was 112%. For the same compound, the Emax (MRGPRX4-83S [4]; Table 2) was 128% and the EC50 (MRGPRX4-83S [4]; Table 2) was 0.296 ± 0.033 nM.
`CCCn1c(=O)c2[nH]c(C3CCCC3)nc2n(CCCCP(=O)(O)O)c1=O` [J-2, (4-(8-Cyclopentyl-2,6-dioxo-1-propyl-1,2,6,7-tetrahydro-3H-purin-3-yl)butyl)phosphonic acid] was tested, and the EC50 (MRGPRX4-83S [1]; Table 2) was > 10000 nM, the IC50 (human MRGPRX4-83L [2]) was > 10000 nM and the EC50 (human MRGPRX4-83L [2]) was > 10000 nM. The IC50 (human MRGPRX4-83L [3]) was > 50000 nM, the EC50 (human MRGPRX4-83L [3]) was > 50000 nM and the Emax (MRGPRX4-83S [4]; Table 2) was 76%. For the same compound, the EC50 (MRGPRX4-83S [4]; Table 2) was 6360 ± 1630 nM.
Compound `C#CCn1c(=O)c2c(nc(CCc3c(C)cccc3C)n2CC)n(CCCCP(=O)(O)O)c1=O` [B-33, (4-(8-(2,6-Dimethylphenethyl)-7-ethyl-2,6-dioxo-1-(prop-2-yn-1-yl)-1,2,6,7-tetrahydro-3H-purin-3-yl)butyl)phosphonic acid] has an Emax (MRGPRX4-83S [1]; Table 3) of 113%, an EC50 (MRGPRX4-83S [1]; Table 3) of 0.543 ± 0.186 nM and an Emax (MRGPRX4-83S [4]; Table 3) of 113%. It also gave an EC50 (MRGPRX4-83S [4]; Table 3) of 0.0487 ± 0.0201 nM.
`C#CCn1c(=O)c2c(nc(CCc3cccc(OC)c3)n2C)n(CCCOP(=O)(O)O)c1=O` [H-1, 3-(8-(3-Methoxyphenethyl)-7-methyl-2,6-dioxo-1-(prop-2-yn-1-yl)-1,2,6,7-tetrahydro-3H-purin-3-yl)propyl dihydrogen phosphate, reference compound] gave an Emax (MRGPRX4-83S [1]; Table 2) of 98%, an EC50 (MRGPRX4-83S [1]; Table 2) of 238 ± 11 nM and an Emax (human MRGPRX4-83L [2]) of 97%. It also gave an EC50 (human MRGPRX4-83L [2]) of 13000 ± 4100 nM, an EC50 (human MRGPRX4-83L [3]) of 574 ± 179 nM and an Emax (human MRGPRX4-83L [3]) of 107%. The Emax (MRGPRX4-83S [4]; Table 2) was 86% and the EC50 (MRGPRX4-83S [4]; Table 2) was 374 ± 111 nM.
`C#CCn1c(=O)c2c(nc(-c3cccc(OC)c3)n2C)n(CCCOP(=O)(O)O)c1=O` [A-1, 3-(8-(3-Methoxyphenyl)-7-methyl-2,6-dioxo-1-(prop-2-yn-1-yl)-1,2,6,7-tetrahydro-3H-purin-3-yl)propyl dihydrogen phosphate, reference compound] was tested, and the EC50 (MRGPRX4-83S [1]; Table 2) was > 10000 nM, the IC50 (human MRGPRX4-83L [2]) was > 10000 nM and the EC50 (human MRGPRX4-83L [2]) was > 10000 nM. For the same compound, the IC50 (human MRGPRX4-83L [3]) was > 10000 nM and the EC50 (human MRGPRX4-83L [3]) was > 10000 nM.
`C#CCn1c(=O)c2c(nc(CCc3cccc(OC)c3)n2C)n(CCCCP(=O)(O)O)c1=O` [B-15, (4-(8-(3-Methoxyphenethyl)-7-methyl-2,6-dioxo-1-(prop-2-yn-1-yl)-1,2,6,7-tetrahydro-3H-purin-3-yl)butyl)phosphonic acid] gave an Emax (MRGPRX4-83S [1]; Table 2) of 132%, an EC50 (MRGPRX4-83S [1]; Table 2) of 19.2 ± 3.5 nM and an Emax (human MRGPRX4-83L [2]) of 141%. The EC50 (human MRGPRX4-83L [2]) was 6280 ± 1380 nM, the EC50 (human MRGPRX4-83L [3]) was 333 ± 7 nM and the Emax (human MRGPRX4-83L [3]) was 113%. The Emax (MRGPRX4-83S [4]; Table 2) was 140% and the EC50 (MRGPRX4-83S [4]; Table 2) was 30 ± 5.8 nM.
Work on `C#CCn1c(=O)c2c(nc(CCc3ccccc3Cl)n2C)n(CCCCP(=O)(O)O)c1=O` [B-17, (4-(8-(2-Chlorophenethyl)-7-methyl-2,6-dioxo-1-(prop-2-yn-1-yl)-1,2,6,7-tetrahydro-3H-purin-3-yl)butyl)phosphonic acid] yielded an Emax (human MRGPRX4-83L [2]) of 114%, an EC50 (human MRGPRX4-83L [2]) of 169 ± 60 nM and an EC50 (human MRGPRX4-83L [3]) of 2.23 ± 0.13 nM. It also gave an Emax (human MRGPRX4-83L [3]) of 109%.
For `C#CCn1c(=O)c2[nH]c(/C=C/c3cccc(OC)c3)nc2n(CCCCP(=O)(O)O)c1=O` [J-1, (E)-(4-(8-(3-Methoxystyryl)-2,6-dioxo-1-(prop-2-yn-1-yl)-1,2,6,7-tetrahydro-3H-purin-3-yl)butyl)phosphonic acid], the EC50 (MRGPRX4-83S [1]; Table 2) was 11.6 ± 1.3 nM, the EC50 (human MRGPRX4-83L [2]) was > 10000 nM and the EC50 (human MRGPRX4-83L [3]) was > 10000 nM. For the same compound, the Emax (MRGPRX4-83S [4]; Table 2) was 65% and the EC50 (MRGPRX4-83S [4]; Table 2) was 200 ± 59 nM.
With `C#CCn1c(=O)c2[nH]c(CCc3cccc(OC)c3)nc2n(CCCCS(=O)(=O)O)c1=O` [E-3, 4-(8-(3-Methoxyphenethyl)-2,6-dioxo-1-(prop-2-yn-1-yl)-1,2,6,7-tetrahydro-3H-purin-3-yl)butane-1-sulfonic acid] the IC50 (human MRGPRX4-83L [2]) was > 10000 nM, the EC50 (human MRGPRX4-83L [2]) was > 10000 nM and the IC50 (human MRGPRX4-83L [3]) was > 10000 nM. The EC50 (human MRGPRX4-83L [3]) was > 10000 nM and the EC50 (MRGPRX4-83S [4]; Table 2) was > 10000 nM.
With `C#CCn1c(=O)c2[nH]c(CCc3ccccc3Br)nc2n(CCCCS(=O)(=O)O)c1=O` [E-1, 4-(8-(2-Bromophenethyl)-2,6-dioxo-1-(prop-2-yn-1-yl)-1,2,6,7-tetrahydro-3H-purin-3-yl)butane-1-sulfonic acid] the IC50 (human MRGPRX4-83L [2]) was > 10000 nM, the EC50 (human MRGPRX4-83L [2]) was > 10000 nM and the IC50 (human MRGPRX4-83L [3]) was > 10000 nM. The EC50 (human MRGPRX4-83L [3]) was > 10000 nM and the EC50 (MRGPRX4-83S [4]; Table 2) was > 10000 nM.
